Measurements taken from patent US5332734A, “Oxazinone derivative” (Japan Tobacco, Incorporated, priority 1991, dated 1994).

Legend:
[1] = target: T1, bovine pancreatic trypsin (TRY) (Bos taurus, UniProt P00760); assay: TRY inhibitory activity; format: biochemical; conditions: TRY 25 nM, substrate 1.0 mM, pH 7.5
T1 construct: purchased Sigma Inc; host or cells: bovine pancreas (by its name)
T1 sequence (P00760 24-246): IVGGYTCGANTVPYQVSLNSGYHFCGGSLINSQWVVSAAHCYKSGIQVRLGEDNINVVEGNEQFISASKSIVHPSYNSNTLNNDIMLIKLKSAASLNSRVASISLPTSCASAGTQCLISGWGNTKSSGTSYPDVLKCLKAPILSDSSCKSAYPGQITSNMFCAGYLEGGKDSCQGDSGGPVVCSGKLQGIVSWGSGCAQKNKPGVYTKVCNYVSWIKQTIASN
Experimental: Inhibotory activities of the oxadinone derivative of the present invention against human leukocyte elastase (HLE), human sputum elastase (HSE), human cathepsin G (HCG), bovine pancreatic α-chymotrypsin (CYT) and bovine pancreatic trypsin (TRY) were measured as follows:
(5) Measurement of TRY Inhibitory Activity
a) Enzyme Preparing Method Bought from Sigma Inc.
Employed was a measuring method similar to that described previously in conjunction with the measurement of the HLE inhibiting activity, except that used was a buffer solution of pH 7.5. The final concentrations of TRY and the synthetic substrate (Z-Arg-pNA; FUNAKOSHI) in the solution of the enzyme reaction were 25 nM and 1.0 mM, respectively.

human neutrophils = assay: Activity for suppressing chemotaxis of human neutrophils (fMLP); format: cell-based; conditions: Neutrophil, 1 h, one hour
Experimental: Test 2: Activity of the Invented Compound for Suppressing Chemotaxis of Human Neutrophils
A neutrophil fraction (60% percoal fraction having neutrophil purity of at least 90%) was obtained from a human peripheral blood by a percoal density gradient centrifugal separation (2300 rpm, 20 minutes).
1300 μl of a culture medium containing 10^-7 M of fMLP (formylmethionyloycyl-phenylalanine), which is a neutrophil chemotaxis factor, was added in advance to each well of a chemotaxis chamber (KURABO). An inter cell having pores 5 μm in diameter and containing 8×10^5 neutrophils and the compound of the present invention adjusted at a desired concentration was disposed in the chemotaxis chamber. After culturing for one hour at 37° C. within a culturing device containing 5% of carbon dioxide gas, the number of cells migrated from the upper side of inter cell membrane into the lower side of the membrane in the chamber was counted by the method described in the following. Specifically, the lower side surface of the inter cell membrane was washed 4 times with PBS. After fixing the washed surface with methanol, the cells were dyed with hematoxylin-eosine solution. Then, the membrane was removed from the inter cell and put on a sliding glass for air-drying, followed by sealing with Canada balsam. Under this condition, five areas selected at random of the membrane were microscopically observed so as to count the number of cells. An average of the number of cells within the five areas was calculated so as to determine the number of migrated cells.
The function of the invented compound for suppressing chemotaxis was determined by the formula given below, in which the value obtained by subtracting the number of migrating cells in the reference experiment in which fMLP was not added from the number of migrating cells in the experiment in which the compound of the present invention was not added was set at 100:
= 100 - (C - D)/(E - D) × 100
A: Chemotaxis in the case of containing the compound of the present invention;
B: Chemotaxis in the case of not containing the compound of the present invention;
C: The number of migrating cells in the case of adding the compound of the present invention, fMLP;
D: The number of migrating cells in the case of not adding fMLP; and
E: The number of migrating cells in the case of adding only fMLP.

[2] = tested on: neutrophil infiltration into carrageenin-induced air pouch inflammation; assay: Suppressing neutrophil infiltration into carrageenin-induced air pouch inflammation; format: in vivo, SD series male rats; conditions: 17 μmol into air pouch, 5 hours; for Cell Infiltration Capability: control = 100
Experimental: Test: 3 Effect of the Invented Compound for Suppressing Neutrophil Infiltration into carrageenin-induced Air Pouch Inflammation
Groups of SD series male rats (5 five weeks old and each weighing 110 to 130 g) were used in this experiment, each group consisting of five rats. In the first step, an air bladder was formed on the back of the rat by hypodermic injection of 8 ml of air while anesthetizing the rat with either. Twenty-four hours later, 5 ml of a physiological saline containing 1% of carrageenin manufactured by Wako K.K. was injected into the air pouch. Promptly after the carrageenin injection, a solution prepared by dissolving the test material (compound of the present invention) in 200 μl of DMSO (dimethylsulfoxide) was administered to the air pouch on the back of the rat.
Five hours later, the rat was killed and the blood was released therefrom. Then, 5 ml of PBS containing 10 mM of EDTA (ethylenediamine tetraacetate) was injected into the air pouch. The exudate within the air bladder was washed and, then, recovered. A predetermined amount of the recovered exudate was measured by a colter counter so as to count the number of infiltrated cells.
The effect of the test material for suppressing the cell infiltration into the carrageenin induced inflammation was determined by the formula given below, in which the value obtained by subtracting the number of infiltrated cells in the experiment in which carrageenin was not administered from the number of infiltrated cells in the reference group in which a medicine was not administered was set at 100:
= 100 - (U - V)/(W - V) × 100
S: Cell infiltration capability in the case of containing the compound of the present invention;
T: Cell infiltration capability in the case of not containing the compound of the present invention;
U: The number of infiltrated cells in the case of administering the compound of the present invention and carrageenin;
V: The number of infiltrated cells in the case of not adding carrageenin; and
W: The number of infiltrated cells in the case of administering carrageenin only.

IC50 [1] | SMILES | inhibition at 50 µM (human neutrophils; concentration 50 (μm), fMLP 10^-7 M) | activity at 50 µM (human neutrophils; concentration 50 (μm), without compound = 100, fMLP 10^-7 M) | inhibition at 100 µM (human neutrophils; concentration 100 (μm), fMLP 10^-7 M) | activity at 100 µM (human neutrophils; concentration 100 (μm), without compound = 100, fMLP 10^-7 M) | Rate (%) of Suppressing Cell Infiltration [2] | Cell Infiltration Capability [2]
> 6.89 µM | Cc1cccc2nc([C@@H](NC(=O)OCC3c4ccccc4-c4ccccc43)C(C)C)oc(=O)c12 [Compound 1, 2-{1(S)-[(9-fluorenylmethoxycarbonyl)amino]-2-methylpropyl}-5-methyl-4H-3,1-benzoxazin-4-one] | 89% | 11% | 99% | 1% | 38% | 62
> 6.68 µM | Cc1cccc2nc([C@H](CC(C)C)NC(=O)OCC3c4ccccc4-c4ccccc43)oc(=O)c12 [Compound 2, 2-{1(S)-[(9-fluorenylmethoxycarbonyl)amino]-3-methylbutyl}-5-methyl-4H-3,1-benzoxazin-4-one] |  |  |  |  | 24% | 76
